Source: paper PMC6467771 (Journal of medicinal chemistry, 2019)

Target: FmlH (Escherichia coli, UniProt Q1RBS0)
Format: binding, Escherichia coli (UPEC, CFT073)
Details: for fold more potent than the matched pair Gal/GalNAc derivative: 50 vs 51, 30 vs 29; for IC50: IC50, ELISA, FmlH binding to desialylated bovine submaxillary mucin, average of four or more replicates

Compound	fold greater potency / improvement in activity relative to 1 (ELISA IC50 ratio)	fold more potent than the matched pair Gal/GalNAc derivative (ELISA IC50 ratio)	IC50
CC(=O)N[C@H]1[C@H](Oc2ccccc2-c2cccc(NS(C)(=O)=O)c2)O[C@H](CO)[C@H](O)[C@@H]1O [Compound 50, N-((2S,3R,4R,5R,6R)-4,5-Dihydroxy-6-(hydroxymethyl)-2-((3’- (methylsulfonamido)-[1,1’-biphenyl]-2-yl)oxy)tetrahydro-2H-pyran-3-yl)acetamide]	3 fold	about 5 fold	230 nM
CNC(=O)c1cccc(-c2ccccc2O[C@@H]2O[C@H](CO)[C@H](O)[C@H](O)[C@H]2NC(C)=O)c1 [Compound 47, 2’-(((2S,3R,4R,5R,6R)-3-Acetamido-4,5-dihydroxy-6-(hydroxymethyl)tetrahydro-2H-pyran-2-yl)oxy)-N-methyl-[1,1’-bi-phenyl]-3-carboxamide]			3400 nM
CC(=O)N[C@H]1[C@H](Oc2ccccc2-c2cccc(F)c2)O[C@H](CO)[C@H](O)[C@@H]1O [Compound 36, N-((2S,3R,4R,5R,6R)-2-((3 ‘-Fluoro-[1,1’-biphenyl]-2-yl)oxy)-4,5-dihydroxy-6-(hydroxymethyl)tetrahydro-2H-pyran-3-yl)acetamide]			1500 nM
CC(=O)N[C@H]1[C@H](Oc2ccc3ccccc3c2-c2cccc(NS(C)(=O)=O)c2)O[C@H](CO)[C@H](O)[C@@H]1O [Compound 85, N-((2S,3R,4R,5R,6R)-4,5-Dihydroxy-6-(hydroxymethyl)-2-((1-(3 (methylsulfonamido)phenyl)naphthalen-2-yl)oxy)tetrahydro-2H-pyran-3-yl)acetamide]			81 nM
CC(=O)N[C@H]1[C@H](Oc2ccccc2-c2cccc(C(N)=O)c2)O[C@H](CO)[C@H](O)[C@@H]1O [Compound 48, 2’-(((2S,3R,4R,5R,6R)-3-Acetamido-4,5-dihydroxy-6 (hydroxymethyl)tetrahydro-2H-pyran-2-yl)oxy)-[1,1’-biphenyl]-3-carboxamide]			1600 nM
CC(=O)N[C@H]1[C@H](Oc2ccccc2-c2cccc(O)c2)O[C@H](CO)[C@H](O)[C@@H]1O [Compound 32, N-((2S,3R,4R,5R,6R)-4,5-Dihydroxy-2-((3’-hydroxy-[1,1’ biphenyl]-2-yl)oxy)-6-(hydroxymethyl)tetrahydro-2H-pyran-3-yl)-acetamide]			700 nM
CC(=O)N[C@H]1[C@H](Oc2ccccc2-c2cccc(C#N)c2)O[C@H](CO)[C@H](O)[C@@H]1O [Compound 39, N-((2S,3R,4R,5R,6R)-2-((3’-Cyano-[1,1’-biphenyl]-2-yl)oxy)-4,5-dihydroxy-6-(hydroxymethyl)tetrahydro-2H-pyran-3-yl)acetamide]			970 nM
CC(=O)N[C@H]1[C@H](Oc2cccc(C(=O)O)c2-c2cccc(NS(C)(=O)=O)c2)O[C@H](CO)[C@H](O)[C@@H]1O [Compound 82, 6-(((2S,3S,4R,5R)-3-Acetamido-4,5-dihydroxy-6 (hydroxymethyl)tetrahydro-2H-pyran-2-yl)oxy)-3 ‘-(methylsulfona-mido)-[1,1’-biphenyl]-2-carboxylic Acid]			66 nM
CC(=O)N[C@H]1[C@H](Oc2ccccc2-c2cccc([N+](=O)[O-])c2)O[C@H](CO)[C@H](O)[C@@H]1O [Compound 38, N-((2S,3R,4R,5R,6R)-4,5-Dihydroxy-6-(hydroxymethyl)-2-((3’-nitro-[1,1’-biphenyl]-2-yl)oxy)tetrahydro-2H-pyran-3-yl)acetamide]			2700 nM
CC(=O)N[C@H]1[C@H](Oc2ccccc2-c2cccc(S(C)(=O)=O)c2)O[C@H](CO)[C@H](O)[C@@H]1O [Compound 41, N-((2S,3R,4R,5R,6R)-4,5-Dihydroxy-6-(hydroxymethyl)-2-((3’- (methylsulfonyl)-[1,1’-biphenyl]-2-yl)oxy)tetrahydro-2H-pyran-3-yl)acetamide]			700 nM
COc1ccc(OS(C)(=O)=O)cc1-c1ccccc1O[C@@H]1O[C@H](CO)[C@H](O)[C@H](O)[C@H]1NC(C)=O [Compound 35, 2’-(((2S,3R,4R,5R,6R)-3-Acetamido-4,5-dihydroxy-6 (hydroxymethyl)tetrahydro-2H-pyran-2-yl)oxy)-6-methoxy-[1,1’-biphenyl]-3-yl Methanesulfonate]			3700 nM
CC(=O)N[C@H]1[C@H](Oc2ccccc2-c2cc(C(=O)O)cc([N+](=O)[O-])c2)O[C@H](CO)[C@H](O)[C@@H]1O [Compound 29, 2’-(((2S,3S/4R/5R)-3-Acetamido-4,5-dihydroxy-6-(hydroxymethyl)tetrahydro-2H-pyran-2-yl)oxy)-5-nitro-[1, 1’-bi-phenyl]-3-carboxylic Acid]			2200 nM
CC(=O)NC1[C@H](Oc2cccc(C)c2-c2cccc(NS(=O)(=O)N(C)C)c2)O[C@H](CO)[C@H](O)[C@@H]1O (stereo in doubt) [Compound 87, N-((2S,3S,4R,5R)-2-((3’-((N,N-Dimethylsulfamoyl)amino)-6-methyl-[1,1’-biphenyl]-2-yl)oxy)-4,5-dihydroxy-6-(hydroxymethyl)-tetrahydro-2H-pyran-3-yl)acetamide]			77 nM
CC(=O)N[C@H]1[C@H](Oc2ccccc2-c2cccc(C(=O)N(C)C)c2)O[C@H](CO)[C@H](O)[C@@H]1O [Compound 46, 2’-(((2S,3R,4R,5R,6R)-3-Acetamido-4,5-dihydroxy-6-(hydroxymethyl)tetrahydro-2H-pyran-2-yl)oxy)-N,N-dimethyl-[1,1’- biphenyl]-3-carboxamide]			3100 nM
O=C(O)c1cc(-c2ccccc2O[C@@H]2O[C@H](CO)[C@H](O)[C@H](O)[C@H]2O)cc([N+](=O)[O-])c1 [Compound 30, 5-Nitro-2’-(((2S,3R,4S,5R,6R)-3,4,5-trihydroxy-6-(hydroxymethyl)-tetrahydro-2H-pyran-2-yl)oxy)-[1,1’-biphenyl]-3-carboxylic Acid]		6 fold	280 nM
CC(=O)N[C@H]1[C@H](Oc2ccccc2-c2cccc(OS(C)(=O)=O)c2)O[C@H](CO)[C@H](O)[C@@H]1O [Compound 33, 2’-(((2S,3R,4R,5R,6R)-3-Acetamido-4,5-dihydroxy-6-(hydroxymethyl)tetrahydro-2H-pyran-2-yl)oxy)-[1,1’-biphenyl]-3-yl methanesulfonate]			890 nM
CC(=O)N[C@H]1[C@H](Oc2cccc([N+](=O)[O-])c2-c2cccc(NS(C)(=O)=O)c2)O[C@H](CO)[C@H](O)[C@@H]1O [Compound 78, N-((2S,3R,4R,5R,6R)-4,5-Dihydroxy-6-(hydroxymethyl)-2-((3’- (methylsulfonamido)-6-nitro-[1,1’-biphenyl]-2-yl)oxy)tetrahydro-2H-pyran-3-yl)acetamide]			58 nM
COC(=O)Nc1cccc(-c2ccccc2O[C@@H]2O[C@H](CO)[C@H](O)[C@H](O)[C@H]2NC(C)=O)c1 [Compound 45, Methyl(2’-(((2S,3R/4R/5R,6R)-3-Acetamido-4/5-dihydroxy-6-(hydroxymethyl)tetrahydro-2H-pyran-2-yl)oxy)-[1,1’-biphenyl]-3 yl)carbamate]			630 nM
CC(=O)NC1[C@H](Oc2ccccc2-c2cccc(NC(=O)C(F)(F)F)c2)O[C@H](CO)[C@H](O)[C@@H]1O (stereo in doubt) [Compound 44, N-(2’-(((2S,3S,4R,5R)-3-Acetamido-4,5-dihydroxy-6 (hydroxymethyl)tetrahydro-2H-pyran-2-yl)oxy)-[1,1’-biphenyl]-3-yl)-2,2,2-trifluoroacetamide]			370 nM
CC(=O)Nc1cccc(-c2ccccc2O[C@@H]2O[C@H](CO)[C@H](O)[C@H](O)[C@H]2NC(C)=O)c1 [Compound 43, N-(2’-(((2S,3R,4R,5R,6R)-3-Acetamido-4,5-dihydroxy-6-(hydroxymethyl)tetrahydro-2H-pyran-2-yl)oxy)-[1,1’-biphenyl]-3-yl)acetamide]			310 nM
CC(=O)N[C@H]1[C@H](Oc2ccccc2-c2cccc(NS(=O)(=O)C(F)(F)F)c2)O[C@H](CO)[C@H](O)[C@@H]1O [Compound 49, N-((2S,3R,4R,5R,6R)-4,5-Dihydroxy-6-(hydroxymethyl)-2-((3’-((trifluoromethyl)sulfonamido)-[1,1’-biphenyl]-2-yl)oxy)-tetrahydro-2H-pyran-3-yl)acetamide]			1100 nM
COc1cccc(-c2ccccc2O[C@@H]2O[C@H](CO)[C@H](O)[C@H](O)[C@H]2NC(C)=O)c1 [Compound 37, N-((2S,3R,4R,5R,6R)-4,5-Dihydroxy-6-(hydroxymethyl)-2-((3’-me-thoxy-[1,1’-biphenyl]-2-yl)oxy)tetrahydro-2H-pyran-3-yl)-acetamide]			2000 nM
COc1cccc(O[C@@H]2O[C@H](CO)[C@H](O)[C@H](O)[C@H]2NC(C)=O)c1-c1cccc(NS(C)(=O)=O)c1 [Compound 83, N-((2S,3S,4R,5R)-4,5-Dihydroxy-6-(hydroxymethyl)-2-((6-me-thoxy-3 ‘-(methylsulfonamido)-[1,1 ‘-biphenyl]-2-yl)oxy)tetrahydro-2H-pyran-3-yl)acetamide]			92 nM
CC(=O)N[C@H]1[C@H](Oc2ccccc2-c2cccc(CO)c2)O[C@H](CO)[C@H](O)[C@@H]1O [Compound 42, N-((2S,3R,4R/5R/6R)-4/5-Dihydroxy-6-(hydroxymethyl)-2-((3’-(hy-droxymethyl)-[1,1’-biphenyl]-2-yl)oxy)tetrahydro-2H-pyran-3-yl)-acetamide]			630 nM
CS(=O)(=O)Nc1cccc(-c2ccccc2O[C@@H]2O[C@H](CO)[C@H](O)[C@H](O)[C@H]2O)c1 [Compound 51, N-(2’-(((2S,3R,4S,5R,6R)-3,4,5-Trihydroxy-6-(hydroxymethyl)-tetrahydro-2H-pyran-2-yl)oxy)-[1,1’-biphenyl]-3-yl)-methanesulfonamide]			1600 nM
CC(=O)N[C@H]1[C@H](Oc2ccccc2-c2cccc(C(F)(F)F)c2)O[C@H](CO)[C@H](O)[C@@H]1O [Compound 40, N-((2S,3R,4R/5R/6R)-4/5-Dihydroxy-6-(hydroxymethyl)-2-((3’-(tri-fluoromethyl)-[1,1’-biphenyl]-2-yl)oxy)tetrahydro-2H-pyran-3-yl) acetamide]			1500 nM
